From patent US12296053B2, “Nanomaterials comprising triols” (Beam Therapeutics Inc., priority 2022, dated 2025) come the findings set out here.

The nature of series [1]: Encapsulation efficiency of LNP preparations (Ribogreen assay; Qubit, unlysed and lysed LNPs). The class given is physicochemical. The following applies: LNP preparation with the ionizable lipid, ABE mRNA:sgRNA 1:1, except 7-1, 7-2, 7-6, 7-10 (unlysed and lysed LNPs, Qubit). An outline of the steps:
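LNPs of ionizable lipid, cholesterol, PEG2000-DMG and DSPC (47.5:40:2.5:10 mol%) were made by microfluidic mixing with base-editor mRNA plus sgRNA (1:1 mass) in 50 mM citrate, pH 4.0, at total lipid:NA molar ratio 6 to 12. Encapsulation was read by Ribogreen, or for lipids 7-1, 7-2, 7-6 and 7-10 by Qubit on unlysed versus lysed LNPs.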

A short description of series [2]: LNP hydrodynamic diameter and polydispersity index by dynamic light scattering (DLS). The class given is physicochemical. The following applies: for Diameter (nm): hydrodynamic diameter of the LNP preparation with the ionizable lipid; for PDI: polydispersity index of the LNP preparation with the ionizable lipid. The method in brief: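 LNPs were mixed at a 3:1 aqueous:organic ratio, diluted in TBS and dialysed against TBS at 4° C. for 8 to 24 hours (20 kDa). Hydrodynamic diameter and PDI were then measured by high-throughput DLS after dilution in 1×PBS.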

Series [3] deals with ALAS1 target site. The experiment in a line: Base editing in liver by LNP-delivered ABE mRNA and sgRNA, targeted deep sequencing. The class given is in vivo. As to conditions: LNP with the ionizable lipid, ABE mRNA + sgRNA targeting ALAS1 1:1; tail vein injection, Balb/c mice; 0.05 mg/kg; tissues four to six days post-dose.

Regarding `CC/C=C\CCCCOC(CCC(=O)OCC(COC(=O)CCCCCCOC(=O)C(CCCC)CCCCCC)COC(=O)CCC(CCCCCC)OC(=O)OCCCN(CC)CC)OCCCC/C=C\CC` (centres unmarked) [Compound 7-45, 3-((4,4-bis(((Z)-oct-5-en-1-yl)oxy)butanoyl)oxy)-2-(((7-((2-butyloctanoyl)oxy)heptanoyl)oxy)methyl)propyl 4-(((3-(diethylamino)propoxy)carbonyl)oxy)decanoate], in series [1], the “Encapsulation Efficiency (%)” value was determined as 93.4%. In series [2], the “Diameter (nm)” value is 81.8 nm and the PDI was 0.13. In addition, in series [3], the “% Editing in Liver (0.05 mpk)” value came to 3.4%.
The like results for `CC/C=C\CCCCOC(CCC(=O)OCC(COC(=O)CCCCCCOC(=O)C(CCCC)CCCCCC)COC(=O)CCC(CCCCCC)OC(=O)NCCN(CC)CC)OCCCC/C=C\CC` (centres unmarked) [Compound 7-41, 3-((4,4-bis(((Z)-oct-5-en-1-yl)oxy)butanoyl)oxy)-2-(((7-((2-butyloctanoyl)oxy)heptanoyl)oxy)methyl)propyl 4-(((2-(diethylamino)ethyl)carbamoyl)oxy)decanoate] were, in that order, 95.9%, 59.05 nm, 0.06 and 4.5%.
As to `CC/C=C\CCCCOC(CCC(=O)OCC(COC(=O)CCCCCC(=O)OCC(CCCC)CCCCCC)COC(=O)CCC(CCCCCC)OC(=O)NCCN1CCCC1)OCCCC/C=C\CC` (centres unmarked) [Compound 7-32, 1-(3-((4,4-bis(((Z)-oct-5-en-1-yl)oxy)butanoyl)oxy)-2-(((4-(((2-(pyrrolidin-1-yl)ethyl)carbamoyl)oxy)decanoyl)oxy)methyl)propyl) 7-(2-butyloctyl) heptanedioate], in series [1], the “Encapsulation Efficiency (%)” value stood at 96.1%. Besides, in series [2], the “Diameter (nm)” value is reported as 53.30 nm and the PDI was found to be 0.10. In series [3], the “% Editing in Liver (0.05 mpk)” value is 0.6%.
`CC/C=C\CCCCOC(CCC(=O)OCC(COC(=O)CCCCCCC(=O)OCCC(CCCCC)CCCCC)COC(=O)CCC(CCCCCC)OC(=O)NCCN1CCCC1)OCCCC/C=C\CC` (centres unmarked) [Compound 7-19, 1-(3-((4,4-bis(((Z)-oct-5-en-1-yl)oxy)butanoyl)oxy)-2-(((4-(((2-(pyrrolidin-1-yl)ethyl)carbamoyl)oxy)decanoyl)oxy)methyl)propyl) 8-(3-pentyloctyl) octanedioate]: in series [1], the “Encapsulation Efficiency (%)” value is 97.2%. Also, in series [2], the “Diameter (nm)” value turned out to be 54.15 nm and the PDI is 0.12. Moreover, the “% Editing in Liver (0.05 mpk)” value in series [3] is reported as 1.7%.
The like results for `CC/C=C\CCCCOC(CCC(=O)OCC(COC(=O)CCCCCCOC(=O)C(CCCC)CCCCCC)COC(=O)CCC(CCCCCC)OC(=O)NCCN1CCCCC1)OCCCC/C=C\CC` (centres unmarked) [Compound 7-44, 3-((4,4-bis(((Z)-oct-5-en-1-yl)oxy)butanoyl)oxy)-2-(((7-((2-butyloctanoyl)oxy)heptanoyl)oxy)methyl)propyl 4-(((2-(piperidin-1-yl)ethyl)carbamoyl)oxy)decanoate] were, in that order, 89.2%, 68.8 nm, 0.08 and 0.1%.
